According to the supplement of paper PMC10307832:

Experiments:
Assay in all cases: relative viability (nuclei count vs DMSO), 5 days (fraction); higher = more cells survive
NCI-H661 = tested on: NCI-H661
In short: (§1)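 Relative viability is defined as nuclei in treated wells over nuclei in vehicle wells. Duplicate plates were run and medians reported. Lung cancer cell lines in 1536-well plates were dosed by pin tool one day after seeding, with one drug or with a fixed anchor-drug dose plus five library-drug doses (not always all listed) in √10 steps, and nuclei were counted after 5 days.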

NCI-H650 = tested on: NCI-H650
In short: as §1

BEN = tested on: BEN
In short: as §1

NCI-H1650 = tested on: NCI-H1650
In short: as §1

A-427 = tested on: A-427
In short: as §1

LC-2-ad = tested on: LC-2-ad
In short: as §1

201T = tested on: 201T
In short: as §1

NCI-H1915 = tested on: NCI-H1915
In short: as §1

ABC-1 = tested on: ABC-1
In short: as §1

H3255 = tested on: H3255
In short: as §1

NCI-H460 = tested on: NCI-H460
In short: as §1

CAL-12T = tested on: CAL-12T
In short: as §1

NCI-H520 = tested on: NCI-H520
In short: as §1

PC-3 [JPC-3] = tested on: PC-3 [JPC-3]
In short: as §1

NCI-H1651 = tested on: NCI-H1651
In short: as §1

NCI-H441 = tested on: NCI-H441
In short: as §1

NCI-H727 = tested on: NCI-H727
In short: as §1

NCI-H1944 = tested on: NCI-H1944
In short: as §1

NCI-H2023 = tested on: NCI-H2023
In short: as §1

NCI-H2087 = tested on: NCI-H2087
In short: as §1

## CC(=O)O[C@@]12CO[C@@H]1C[C@H](O)[C@@]1(C)C(=O)[C@H](O)C3=C(C)[C@@H](OC(=O)[C@H](O)[C@@H](NC(=O)OC(C)(C)C)c4ccccc4)C[C@@](O)([C@@H](OC(=O)c4ccccc4)[C@H]21)C3(C)C [Docetaxel] + CC(=O)c1c(C)c2cnc(Nc3ccc(N4CCNCC4)cn3)nc2n(C2CCCC2)c1=O [Palbociclib] (partner 0.5 µM)
NCI-H661; first compound 0.0002 µM
  relative viability: 0.42
NCI-H661; first compound 0.000632 µM
  relative viability: 0.448
NCI-H661; first compound 0.002 µM
  relative viability: 0.472
NCI-H661; first compound 0.006325 µM
  relative viability: 0.377
NCI-H661; first compound 0.02 µM
  relative viability: 0.359
NCI-H650; first compound 0.0002 µM
  relative viability: 0.34
NCI-H650; first compound 0.000632 µM
  relative viability: 0.305
NCI-H650; first compound 0.002 µM
  relative viability: 0.222
NCI-H650; first compound 0.006325 µM
  relative viability: 0.211
NCI-H650; first compound 0.02 µM
  relative viability: 0.193
BEN; first compound 0.0002 µM
  relative viability: 0.457
BEN; first compound 0.000632 µM
  relative viability: 0.478
BEN; first compound 0.002 µM
  relative viability: 0.39
BEN; first compound 0.006325 µM
  relative viability: 0.376
BEN; first compound 0.02 µM
  relative viability: 0.343
NCI-H1650; first compound 0.0002 µM
  relative viability: 0.257
NCI-H1650; first compound 0.000632 µM
  relative viability: 0.263
NCI-H1650; first compound 0.002 µM
  relative viability: 0.207
NCI-H1650; first compound 0.006325 µM
  relative viability: 0.216
NCI-H1650; first compound 0.02 µM
  relative viability: 0.138
A-427; first compound 0.0002 µM
  relative viability: 0.522
A-427; first compound 0.000632 µM
  relative viability: 0.505
A-427; first compound 0.002 µM
  relative viability: 0.507
A-427; first compound 0.006325 µM
  relative viability: 0.372
A-427; first compound 0.02 µM
  relative viability: 0.241
LC-2-ad; first compound 0.0002 µM
  relative viability: 0.438
LC-2-ad; first compound 0.000632 µM
  relative viability: 0.448
LC-2-ad; first compound 0.002 µM
  relative viability: 0.334
LC-2-ad; first compound 0.006325 µM
  relative viability: 0.284
LC-2-ad; first compound 0.02 µM
  relative viability: 0.233
201T; first compound 0.0002 µM
  relative viability: 0.357
201T; first compound 0.000632 µM
  relative viability: 0.369
201T; first compound 0.002 µM
  relative viability: 0.367
201T; first compound 0.006325 µM
  relative viability: 0.388
201T; first compound 0.02 µM
  relative viability: 0.335
NCI-H1915; first compound 0.0002 µM
  relative viability: 0.506
NCI-H1915; first compound 0.000632 µM
  relative viability: 0.464
NCI-H1915; first compound 0.002 µM
  relative viability: 0.219
NCI-H1915; first compound 0.006325 µM
  relative viability: 0.149
NCI-H1915; first compound 0.02 µM
  relative viability: 0.102
ABC-1; first compound 0.0002 µM
  relative viability: 0.568
ABC-1; first compound 0.000632 µM
  relative viability: 0.587
ABC-1; first compound 0.002 µM
  relative viability: 0.539
ABC-1; first compound 0.006325 µM
  relative viability: 0.444
ABC-1; first compound 0.02 µM
  relative viability: 0.437
H3255; first compound 0.0002 µM
  relative viability: 0.323
H3255; first compound 0.000632 µM
  relative viability: 0.304
H3255; first compound 0.002 µM
  relative viability: 0.296
H3255; first compound 0.006325 µM
  relative viability: 0.308
H3255; first compound 0.02 µM
  relative viability: 0.282
NCI-H460; first compound 0.0002 µM
  relative viability: 0.194
NCI-H460; first compound 0.000632 µM
  relative viability: 0.0505
NCI-H460; first compound 0.002 µM
  relative viability: 0.0387
NCI-H460; first compound 0.006325 µM
  relative viability: 0.01
NCI-H460; first compound 0.02 µM
  relative viability: 0.0125
CAL-12T; first compound 0.0002 µM
  relative viability: 0.251
CAL-12T; first compound 0.000632 µM
  relative viability: 0.282
CAL-12T; first compound 0.002 µM
  relative viability: 0.192
CAL-12T; first compound 0.006325 µM
  relative viability: 0.198
CAL-12T; first compound 0.02 µM
  relative viability: 0.105
NCI-H520; first compound 0.0002 µM
  relative viability: 0.192
NCI-H520; first compound 0.000632 µM
  relative viability: 0.253
NCI-H520; first compound 0.002 µM
  relative viability: 0.209
NCI-H520; first compound 0.006325 µM
  relative viability: 0.189
NCI-H520; first compound 0.02 µM
  relative viability: 0.122
PC-3 [JPC-3]; first compound 0.0002 µM
  relative viability: 0.55
PC-3 [JPC-3]; first compound 0.000632 µM
  relative viability: 0.559
PC-3 [JPC-3]; first compound 0.002 µM
  relative viability: 0.573
PC-3 [JPC-3]; first compound 0.006325 µM
  relative viability: 0.469
PC-3 [JPC-3]; first compound 0.02 µM
  relative viability: 0.422
NCI-H1651; first compound 0.0002 µM
  relative viability: 0.478
NCI-H1651; first compound 0.000632 µM
  relative viability: 0.543
NCI-H1651; first compound 0.002 µM
  relative viability: 0.373
NCI-H1651; first compound 0.006325 µM
  relative viability: 0.212
NCI-H441; first compound 0.0002 µM
  relative viability: 0.215
NCI-H441; first compound 0.000632 µM
  relative viability: 0.218
NCI-H441; first compound 0.002 µM
  relative viability: 0.209
NCI-H441; first compound 0.006325 µM
  relative viability: 0.2
NCI-H441; first compound 0.02 µM
  relative viability: 0.132
NCI-H727; first compound 0.0002 µM
  relative viability: 0.618
NCI-H727; first compound 0.000632 µM
  relative viability: 0.64
NCI-H727; first compound 0.002 µM
  relative viability: 0.629
NCI-H727; first compound 0.006325 µM
  relative viability: 0.538
NCI-H727; first compound 0.02 µM
  relative viability: 0.446
NCI-H1944; first compound 0.0002 µM
  relative viability: 0.359
NCI-H1944; first compound 0.000632 µM
  relative viability: 0.268
NCI-H1944; first compound 0.002 µM
  relative viability: 0.314
NCI-H1944; first compound 0.006325 µM
  relative viability: 0.22
NCI-H1944; first compound 0.02 µM
  relative viability: 0.14
NCI-H2023; first compound 0.0002 µM
  relative viability: 0.357
NCI-H2023; first compound 0.000632 µM
  relative viability: 0.339
NCI-H2023; first compound 0.002 µM
  relative viability: 0.101
NCI-H2023; first compound 0.006325 µM
  relative viability: 0.0906
NCI-H2023; first compound 0.02 µM
  relative viability: 0.0705
NCI-H2087; first compound 0.0002 µM
  relative viability: 0.218
NCI-H2087; first compound 0.000632 µM
  relative viability: 0.179
NCI-H2087; first compound 0.002 µM
  relative viability: 0.135
NCI-H2087; first compound 0.006325 µM
  relative viability: 0.144
NCI-H2087; first compound 0.02 µM
  relative viability: 0.102
